Experiment [1] addresses T1, β-glucosidase from Aspergillus niger (Aspergillus niger, UniProt A2RAL4).
T1 sequence (A2RAL4 20-860): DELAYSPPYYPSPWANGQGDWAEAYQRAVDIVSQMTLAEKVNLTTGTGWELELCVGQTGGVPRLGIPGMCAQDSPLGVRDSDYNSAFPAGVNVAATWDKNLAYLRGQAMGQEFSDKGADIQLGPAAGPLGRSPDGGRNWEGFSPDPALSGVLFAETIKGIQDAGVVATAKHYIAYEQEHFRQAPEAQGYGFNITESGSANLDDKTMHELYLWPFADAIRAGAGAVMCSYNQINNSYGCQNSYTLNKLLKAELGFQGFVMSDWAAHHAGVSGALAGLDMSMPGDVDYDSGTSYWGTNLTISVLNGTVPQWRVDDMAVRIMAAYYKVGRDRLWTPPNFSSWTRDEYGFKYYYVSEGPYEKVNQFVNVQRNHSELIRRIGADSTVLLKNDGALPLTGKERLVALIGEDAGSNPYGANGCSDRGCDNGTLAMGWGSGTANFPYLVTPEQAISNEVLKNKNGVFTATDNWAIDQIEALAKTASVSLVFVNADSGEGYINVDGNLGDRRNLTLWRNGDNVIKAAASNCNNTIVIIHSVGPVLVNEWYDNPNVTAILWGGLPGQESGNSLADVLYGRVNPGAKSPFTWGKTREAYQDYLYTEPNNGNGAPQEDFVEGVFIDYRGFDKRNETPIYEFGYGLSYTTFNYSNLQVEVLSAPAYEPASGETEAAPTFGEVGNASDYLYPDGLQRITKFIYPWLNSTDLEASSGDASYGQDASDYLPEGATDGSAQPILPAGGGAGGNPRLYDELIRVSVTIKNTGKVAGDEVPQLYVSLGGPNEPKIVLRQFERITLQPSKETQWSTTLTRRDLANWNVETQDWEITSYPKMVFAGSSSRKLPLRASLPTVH
Kind of experiment: Inhibition of β-glucosidase from Aspergillus niger, β-p-NPG substrate. It counts as biochemical. The settings on record: read-out: Apparent IC50, A. niger β-glucosidase; pH 4.6, β-p-NPG substrate.

For experiment [2], the target named is rat intestinal maltase. As to the kind of experiment: Inhibitory effects on rat intestinal α-glucosidases: maltase. It counts as biochemical. Conditions: read-out: Apparent IC50, Maltase; rat intestinal disaccharidases.
Experiment [3] has as its target T2, rat intestinal isomaltase (Rattus norvegicus, UniProt P23739). As to the kind of experiment: Inhibitory effects on rat intestinal α-glucosidases: isomaltase. It counts as biochemical.
Experiment [4] deals with rat intestinal sucrase (Rattus norvegicus, UniProt P23739). As to the kind of experiment: Inhibitory effects on rat intestinal α-glucosidases: sucrase. Type of experiment: biochemical.
rat intestinal sucrase, sequence (P23739 whole entry): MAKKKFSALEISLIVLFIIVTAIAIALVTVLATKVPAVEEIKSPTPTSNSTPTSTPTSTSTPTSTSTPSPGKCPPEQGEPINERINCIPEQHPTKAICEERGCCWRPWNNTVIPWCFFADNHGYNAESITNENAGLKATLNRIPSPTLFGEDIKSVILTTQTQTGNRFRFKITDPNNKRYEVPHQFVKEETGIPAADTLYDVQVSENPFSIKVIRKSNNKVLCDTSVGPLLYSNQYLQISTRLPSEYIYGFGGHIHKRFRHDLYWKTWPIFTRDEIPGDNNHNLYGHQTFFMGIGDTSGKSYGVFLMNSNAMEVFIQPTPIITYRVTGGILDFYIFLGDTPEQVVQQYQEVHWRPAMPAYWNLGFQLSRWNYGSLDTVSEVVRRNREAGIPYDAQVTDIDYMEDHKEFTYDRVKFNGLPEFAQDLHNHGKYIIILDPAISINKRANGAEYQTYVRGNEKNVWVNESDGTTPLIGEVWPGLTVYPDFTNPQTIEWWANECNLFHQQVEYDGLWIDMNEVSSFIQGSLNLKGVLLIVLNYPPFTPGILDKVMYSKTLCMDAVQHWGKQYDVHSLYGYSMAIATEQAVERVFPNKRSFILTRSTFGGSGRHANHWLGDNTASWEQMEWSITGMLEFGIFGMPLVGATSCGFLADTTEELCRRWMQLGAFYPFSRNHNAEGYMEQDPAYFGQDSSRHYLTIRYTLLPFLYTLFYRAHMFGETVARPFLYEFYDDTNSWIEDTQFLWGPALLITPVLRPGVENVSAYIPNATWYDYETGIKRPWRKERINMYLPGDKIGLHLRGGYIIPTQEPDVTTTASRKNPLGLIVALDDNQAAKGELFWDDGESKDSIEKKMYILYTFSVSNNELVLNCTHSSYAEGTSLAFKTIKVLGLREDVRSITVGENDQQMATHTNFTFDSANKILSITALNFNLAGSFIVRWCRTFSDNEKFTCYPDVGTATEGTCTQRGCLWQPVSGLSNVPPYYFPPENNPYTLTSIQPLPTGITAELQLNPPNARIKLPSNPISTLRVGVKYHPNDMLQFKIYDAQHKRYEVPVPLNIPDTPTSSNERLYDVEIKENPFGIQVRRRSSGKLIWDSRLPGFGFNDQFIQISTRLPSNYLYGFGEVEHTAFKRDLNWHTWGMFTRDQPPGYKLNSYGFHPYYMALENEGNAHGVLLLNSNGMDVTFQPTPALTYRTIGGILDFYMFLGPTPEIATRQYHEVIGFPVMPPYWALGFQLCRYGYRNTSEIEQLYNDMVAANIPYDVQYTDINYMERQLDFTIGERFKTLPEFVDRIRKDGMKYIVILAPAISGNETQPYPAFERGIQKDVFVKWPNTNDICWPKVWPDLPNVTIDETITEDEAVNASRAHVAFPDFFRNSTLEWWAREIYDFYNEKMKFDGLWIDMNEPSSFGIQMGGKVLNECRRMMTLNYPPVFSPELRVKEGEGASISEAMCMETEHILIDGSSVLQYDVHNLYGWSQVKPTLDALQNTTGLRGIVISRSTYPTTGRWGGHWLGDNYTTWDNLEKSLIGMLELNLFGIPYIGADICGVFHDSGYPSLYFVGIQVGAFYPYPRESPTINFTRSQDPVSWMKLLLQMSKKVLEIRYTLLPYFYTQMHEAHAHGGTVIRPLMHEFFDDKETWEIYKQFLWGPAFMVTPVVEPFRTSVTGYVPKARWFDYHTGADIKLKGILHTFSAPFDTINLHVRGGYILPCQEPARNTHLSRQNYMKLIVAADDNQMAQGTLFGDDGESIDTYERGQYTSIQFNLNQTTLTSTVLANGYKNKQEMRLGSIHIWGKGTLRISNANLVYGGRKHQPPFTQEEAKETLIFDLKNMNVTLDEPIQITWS
Experiment [5] has as its system intestinal α-glucosidases. Conditions: cited from earlier work.
The target in experiment [6] is T2, rat intestinal isomaltase. The settings on record: read-out: Apparent IC50, Isomaltase; rat intestinal disaccharidases; cited from earlier work.
Experiment [7] addresses rat intestinal maltase. Conditions: read-out: Apparent IC50, Maltase; rat intestinal disaccharidases; cited from earlier work.
Experiment [8] has as its target recombinant human α-glucosidase GAA (Homo sapiens, UniProt P10253). Kind of experiment: Inhibition of recombinant human α-glucosidase GAA. Type of experiment: biochemical.
Setting [9] is: read-out: Apparent IC50, Isomaltase, rat intestinal disaccharidases.
Where [10] appears, read: read-out: Apparent IC50, Sucrase, rat intestinal disaccharidases.

Like-named read-outs stand apart in the source and are kept apart here.

T2 sequence (P23739 whole entry): as above

As a reminder, the IC50 is the point on the concentration scale where inhibition reaches its midpoint. 2', 3'-epi-Neosalacinol [Compound 13]: the IC50 is over 1000 µM in experiment [1], over 100 µM in experiment [2] and 34 µM in experiment [3] (setting [9]).

In the case of 2', 3'-epi-Salacinol [Compound 12], the IC50 in experiment [4] (setting [10]) was over 100 µM; in experiment [1] it was over 1000 µM; in experiment [2], over 100 µM; in experiment [3] (setting [9]), over 100 µM.

As for 2'-epi-Neosalacinol [Compound 11], the half-inhibitory concentration (IC50) in experiment [1] is over 1000 µM; in experiment [2] it was over 100 µM; in experiment [3] (setting [9]), over 100 µM.

Take 2'-epi-Salacinol [Compound 10]: the IC50 is over 100 µM in experiment [4] (setting [10]), over 1000 µM in experiment [1], over 100 µM in experiment [2] and over 100 µM in experiment [3] (setting [9]).

In the case of 3'-epi-Neosalacinol [Compound 9], the IC50 is 0.69 µM in experiment [4] (setting [10]), over 1000 µM in experiment [1], 4.3 µM in experiment [2] and 0.58 µM in experiment [3] (setting [9]).

Turning to 3'-epi-Salacinol [Compound 8], the IC50 is 19 µM in experiment [4] (setting [10]), over 1000 µM in experiment [1], over 100 µM in experiment [2] and 6.4 µM in experiment [3] (setting [9]).

Turning to `O=S(=O)([O-])O[C@@H](CO)[C@H](O)C[S@+]1C[C@@H](O)[C@H](O)[C@H]1CO` [Compound 1, Salacinol], the “type of inhibition (Lineweaver–Burk plots)” value in experiment [5] is given as “competitive type of inhibition”. In addition, the IC50 in experiment [6] and in experiment [7] was 5.2 µM throughout.

Usually Ki stands for a dissociation constant, usually derived from enzyme kinetics or from competition with a known ligand. On to `[O-][C@@H](CO)[C@H](O)C[S@+]1C[C@@H](O)[C@H](O)[C@H]1CO` [Compound 2, neosalacinol, reference compound], for which the IC50 in experiment [4] was 3.6 µM; in experiment [2] it was 25 µM; in experiment [3], 0.45 µM. The Ki in experiment [8] was found to be 3.6 ± 0.3 µM.

For the molecule `OCC(CO)N[C@H]1C[C@](O)(CO)[C@@H](O)[C@H](O)[C@H]1O` [Voglibose], the inhibition constant (Ki) in experiment [8] is 7.6 ± 0.8 µM.

The record behind these values is publication PMC8694024 (RSC Advances, 2021).
